Literature values, collected in patent publication US20140350454A1, “IRRADIATION APPARATUS” (Photocure ASA, priority 2011, published 2014).
Read-outs that look alike come from different tables or passages of the source.

Columns and labels:
VIN [1] = conditions: VIN patients, topical 5-ALA 20% w/w in Unguentum Merck, 4 hours incubation, 630 nm non-laser light
lesions of VIN 1-3 = conditions: 25 patients, 111 lesions of VIN 1-3; 10 ml 5-ALA solution 20% w/w in saline, 4-5 hours under occlusion; 635 nm laser, 100 J/cm^2, 150 mW/cm^2; repeated PDT
VIN [2] = conditions: bioadhesive patch 38 mg/cm^2 5-ALA in dry form, in situ 4-6 hours; 630 nm non-laser lamp, 20-30 min, 100 J/cm^2; repeated PDT

## NCC(=O)CCC(=O)O [5-ALA, 5-aminolevulinic acid]
VIN [1]; light dose 50 J/cm^2
  response rate: unacceptably low
VIN [1]; light dose 100 J/cm^2
  clearance rate: 40-60%
Lesions of VIN 1-3
  complete response (of the patients): 52%
VIN [2]
  clearance rate: 52%
